Consider one compound from article PMC3680066 (BMC Microbiology, 2013).

The target of this assay is leucine aminopeptidase (LAP), pepA (Burkholderia pseudomallei, UniProt Q63WC3). In words: biochemical. The note with it: read-out: Relative activity (%).
leucine aminopeptidase (LAP), pepA, sequence (Q63WC3 whole entry, looked up): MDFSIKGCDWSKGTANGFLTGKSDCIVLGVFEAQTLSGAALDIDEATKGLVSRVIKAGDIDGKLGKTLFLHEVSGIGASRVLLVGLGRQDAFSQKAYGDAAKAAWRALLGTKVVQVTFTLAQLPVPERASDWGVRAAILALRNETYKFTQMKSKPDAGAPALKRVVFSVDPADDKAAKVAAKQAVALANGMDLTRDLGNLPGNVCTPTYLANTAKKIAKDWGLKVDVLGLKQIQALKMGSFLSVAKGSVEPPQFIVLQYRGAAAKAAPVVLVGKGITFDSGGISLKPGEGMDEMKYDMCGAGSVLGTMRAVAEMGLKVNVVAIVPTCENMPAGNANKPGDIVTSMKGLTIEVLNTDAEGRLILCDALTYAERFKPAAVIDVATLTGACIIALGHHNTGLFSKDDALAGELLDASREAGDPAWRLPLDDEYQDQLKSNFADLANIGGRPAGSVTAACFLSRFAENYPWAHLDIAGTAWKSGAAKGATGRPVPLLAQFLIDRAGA

Consider `CC(C)C[C@@H](N)[C@H](O)C(=O)N[C@H](C(=O)N[C@H](C(=O)N[C@@H](CC(=O)O)C(=O)O)C(C)C)C(C)C` [amastatin], for which the activity at 2000 µM worked out at 0%.
